# From ChEMBL document CHEMBL4507319 (2021)
# The source made the active and inactive calls. No cut-off for these calls is given here.
# Tests used:
# [1] = target: Dual specificity protein kinase CLK3 (Homo sapiens) (UniProt P49761); conditions: Compound concentration 1000.0 nM
# [2] = target: Serine/threonine-protein kinase 24 (Homo sapiens, UniProt Q9Y6E0); conditions: Compound concentration 1000.0 nM
# [3] = target: 5'-AMP-activated protein kinase catalytic subunit alpha-1 (Homo sapiens, UniProt Q13131); assay: Biochemical PRKAA1 assay with 2 mM ATP (Bayer in house)
# [4] = target: Tyrosine-protein kinase receptor Tie-1 (Homo sapiens) (UniProt P35590); conditions: Compound concentration 1000.0 nM
# [5] = target: High affinity nerve growth factor receptor (Homo sapiens) (UniProt P04629); conditions: Compound concentration 1000.0 nM
# [6] = target: T1, Rhodopsin kinase GRK7 (Homo sapiens) (UniProt Q8WTQ7); conditions: Compound concentration 1000.0 nM
# T1 sequence (whole entry): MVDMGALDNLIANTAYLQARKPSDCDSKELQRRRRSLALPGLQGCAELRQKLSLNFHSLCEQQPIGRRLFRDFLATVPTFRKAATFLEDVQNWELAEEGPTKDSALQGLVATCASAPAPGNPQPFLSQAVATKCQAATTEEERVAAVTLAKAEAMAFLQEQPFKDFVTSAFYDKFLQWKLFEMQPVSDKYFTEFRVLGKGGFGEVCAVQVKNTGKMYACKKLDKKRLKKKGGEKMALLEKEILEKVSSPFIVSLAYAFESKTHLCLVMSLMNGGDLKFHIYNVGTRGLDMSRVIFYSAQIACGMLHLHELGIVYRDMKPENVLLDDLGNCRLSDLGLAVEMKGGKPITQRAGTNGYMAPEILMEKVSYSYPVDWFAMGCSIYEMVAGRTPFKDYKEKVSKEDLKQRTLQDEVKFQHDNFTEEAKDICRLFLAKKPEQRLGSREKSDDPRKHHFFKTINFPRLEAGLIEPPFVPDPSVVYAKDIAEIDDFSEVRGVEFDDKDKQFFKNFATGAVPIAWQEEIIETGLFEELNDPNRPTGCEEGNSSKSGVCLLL
# [7] = target: Muscarinic acetylcholine receptor M3 (Homo sapiens) (UniProt P20309); conditions: Compound concentration 10.0 uM
# [8] = target: Tyrosine-protein kinase SYK (Homo sapiens) (UniProt P43405); conditions: Compound concentration 1000.0 nM
# [9] = target: Mitogen-activated protein kinase kinase kinase 13 (Homo sapiens) (UniProt O43283); conditions: Compound concentration 1000.0 nM
# [10] = target: cAMP-dependent protein kinase catalytic subunit beta (Homo sapiens) (UniProt P22694); conditions: Compound concentration 1000.0 nM
# [11] = target: NT-3 growth factor receptor (Homo sapiens) (UniProt Q16288); conditions: Compound concentration 1000.0 nM
# [12] = test system: Proto-oncogene tyrosine-protein kinase receptor Ret (Homo sapiens), P07949 [V804M]; conditions: Compound concentration 1000.0 nM
# [13] = target: Serine/threonine-protein kinase 25 (Homo sapiens) (UniProt O00506); conditions: Compound concentration 1000.0 nM
# [14] = target: Protein kinase C delta type (Homo sapiens) (UniProt Q05655); conditions: Compound concentration 1000.0 nM
# [15] = target: Focal adhesion kinase 1 (Homo sapiens) (UniProt Q05397); conditions: Compound concentration 1000.0 nM
# [16] = target: T2, Serine/threonine-protein kinase 3 (Homo sapiens) (UniProt Q13188); conditions: Compound concentration 1000.0 nM
# T2 sequence (whole entry): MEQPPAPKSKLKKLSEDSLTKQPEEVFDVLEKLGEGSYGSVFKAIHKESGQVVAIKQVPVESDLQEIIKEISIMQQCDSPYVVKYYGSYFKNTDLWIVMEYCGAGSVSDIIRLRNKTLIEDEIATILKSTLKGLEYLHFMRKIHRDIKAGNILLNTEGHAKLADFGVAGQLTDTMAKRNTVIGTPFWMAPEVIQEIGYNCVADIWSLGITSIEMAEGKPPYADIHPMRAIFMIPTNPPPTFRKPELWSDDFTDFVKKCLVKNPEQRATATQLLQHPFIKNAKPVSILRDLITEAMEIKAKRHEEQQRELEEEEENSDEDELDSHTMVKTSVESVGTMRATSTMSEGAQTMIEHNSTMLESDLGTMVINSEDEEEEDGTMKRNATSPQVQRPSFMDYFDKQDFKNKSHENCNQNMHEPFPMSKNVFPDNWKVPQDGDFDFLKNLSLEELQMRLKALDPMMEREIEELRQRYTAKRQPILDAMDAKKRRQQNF
# [17] = target: BMP-2-inducible protein kinase (Homo sapiens) (UniProt Q9NSY1); conditions: Compound concentration 1000.0 nM
# [18] = target: BDNF/NT-3 growth factors receptor (Homo sapiens) (UniProt Q16620); conditions: Compound concentration 1000.0 nM
# [19] = target: T3, Serine/threonine-protein kinase ICK (Homo sapiens) (UniProt Q9UPZ9); conditions: Compound concentration 1000.0 nM
# T3 sequence (whole entry): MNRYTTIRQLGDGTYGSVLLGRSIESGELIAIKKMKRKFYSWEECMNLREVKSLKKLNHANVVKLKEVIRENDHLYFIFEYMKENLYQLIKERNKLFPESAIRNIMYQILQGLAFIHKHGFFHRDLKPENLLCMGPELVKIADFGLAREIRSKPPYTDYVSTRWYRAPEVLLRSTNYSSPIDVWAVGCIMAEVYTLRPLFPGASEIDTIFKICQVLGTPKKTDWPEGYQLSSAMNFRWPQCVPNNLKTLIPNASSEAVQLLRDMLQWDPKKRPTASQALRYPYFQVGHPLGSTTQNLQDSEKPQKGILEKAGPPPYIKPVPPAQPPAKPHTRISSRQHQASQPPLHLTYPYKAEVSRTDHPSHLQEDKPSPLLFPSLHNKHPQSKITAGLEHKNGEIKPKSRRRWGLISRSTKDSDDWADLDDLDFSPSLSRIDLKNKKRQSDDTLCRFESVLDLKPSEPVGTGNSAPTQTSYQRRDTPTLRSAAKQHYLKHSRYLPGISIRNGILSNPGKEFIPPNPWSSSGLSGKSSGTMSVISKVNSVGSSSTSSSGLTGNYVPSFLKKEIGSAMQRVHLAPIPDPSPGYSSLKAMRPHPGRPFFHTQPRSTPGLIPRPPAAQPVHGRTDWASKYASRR
# Chain of Protein kinase C delta type (Homo sapiens) (Q05655 whole entry, looked up): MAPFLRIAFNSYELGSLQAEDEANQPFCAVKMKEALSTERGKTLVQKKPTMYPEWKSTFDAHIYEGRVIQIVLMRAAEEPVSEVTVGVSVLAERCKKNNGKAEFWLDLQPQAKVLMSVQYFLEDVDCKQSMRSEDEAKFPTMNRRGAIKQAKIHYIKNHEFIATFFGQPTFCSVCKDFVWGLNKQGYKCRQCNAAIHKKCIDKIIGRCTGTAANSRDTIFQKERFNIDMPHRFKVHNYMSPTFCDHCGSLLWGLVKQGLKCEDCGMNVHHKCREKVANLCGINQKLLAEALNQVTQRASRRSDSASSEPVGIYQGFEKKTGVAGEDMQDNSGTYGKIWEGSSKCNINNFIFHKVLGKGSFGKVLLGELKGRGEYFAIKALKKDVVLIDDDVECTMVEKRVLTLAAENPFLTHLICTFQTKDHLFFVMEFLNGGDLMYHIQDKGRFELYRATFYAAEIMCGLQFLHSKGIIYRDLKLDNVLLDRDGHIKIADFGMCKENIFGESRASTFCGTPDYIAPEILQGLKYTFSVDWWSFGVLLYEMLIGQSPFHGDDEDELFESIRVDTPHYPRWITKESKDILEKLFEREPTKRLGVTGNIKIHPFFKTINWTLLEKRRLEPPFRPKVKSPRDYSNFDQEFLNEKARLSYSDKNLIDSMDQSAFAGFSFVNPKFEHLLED
# Chain of 5'-AMP-activated protein kinase catalytic subunit alpha-1 (Q13131 whole entry): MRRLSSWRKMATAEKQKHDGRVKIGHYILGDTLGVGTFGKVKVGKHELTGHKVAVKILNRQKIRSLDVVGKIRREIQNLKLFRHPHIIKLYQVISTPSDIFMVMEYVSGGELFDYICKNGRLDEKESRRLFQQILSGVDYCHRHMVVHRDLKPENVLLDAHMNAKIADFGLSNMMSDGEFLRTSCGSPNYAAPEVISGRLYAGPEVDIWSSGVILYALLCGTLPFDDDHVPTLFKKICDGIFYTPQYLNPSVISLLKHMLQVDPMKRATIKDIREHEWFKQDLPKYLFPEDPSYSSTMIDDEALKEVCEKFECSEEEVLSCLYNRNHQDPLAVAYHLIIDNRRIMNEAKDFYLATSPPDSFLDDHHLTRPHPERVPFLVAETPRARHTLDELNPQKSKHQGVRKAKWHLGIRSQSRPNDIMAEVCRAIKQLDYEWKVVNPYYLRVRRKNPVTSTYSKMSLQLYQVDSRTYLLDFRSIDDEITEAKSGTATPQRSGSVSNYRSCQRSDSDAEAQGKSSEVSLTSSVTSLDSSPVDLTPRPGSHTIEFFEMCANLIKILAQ
# Chain of Serine/threonine-protein kinase 24 (Q9Y6E0 whole entry, looked up): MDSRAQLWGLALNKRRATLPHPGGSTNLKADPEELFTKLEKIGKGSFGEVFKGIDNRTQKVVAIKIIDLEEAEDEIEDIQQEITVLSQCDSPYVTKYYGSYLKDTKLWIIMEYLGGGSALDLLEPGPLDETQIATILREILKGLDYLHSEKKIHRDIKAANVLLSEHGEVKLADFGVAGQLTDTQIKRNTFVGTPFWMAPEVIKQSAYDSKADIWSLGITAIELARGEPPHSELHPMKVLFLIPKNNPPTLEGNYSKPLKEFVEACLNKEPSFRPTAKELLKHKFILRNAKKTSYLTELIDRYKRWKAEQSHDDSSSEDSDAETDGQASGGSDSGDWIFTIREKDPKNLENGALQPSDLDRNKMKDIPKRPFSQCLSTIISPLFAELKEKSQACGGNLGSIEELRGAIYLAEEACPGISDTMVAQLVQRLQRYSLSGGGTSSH
# Chain of Mitogen-activated protein kinase kinase kinase 13 (Homo sapiens) (O43283 whole entry): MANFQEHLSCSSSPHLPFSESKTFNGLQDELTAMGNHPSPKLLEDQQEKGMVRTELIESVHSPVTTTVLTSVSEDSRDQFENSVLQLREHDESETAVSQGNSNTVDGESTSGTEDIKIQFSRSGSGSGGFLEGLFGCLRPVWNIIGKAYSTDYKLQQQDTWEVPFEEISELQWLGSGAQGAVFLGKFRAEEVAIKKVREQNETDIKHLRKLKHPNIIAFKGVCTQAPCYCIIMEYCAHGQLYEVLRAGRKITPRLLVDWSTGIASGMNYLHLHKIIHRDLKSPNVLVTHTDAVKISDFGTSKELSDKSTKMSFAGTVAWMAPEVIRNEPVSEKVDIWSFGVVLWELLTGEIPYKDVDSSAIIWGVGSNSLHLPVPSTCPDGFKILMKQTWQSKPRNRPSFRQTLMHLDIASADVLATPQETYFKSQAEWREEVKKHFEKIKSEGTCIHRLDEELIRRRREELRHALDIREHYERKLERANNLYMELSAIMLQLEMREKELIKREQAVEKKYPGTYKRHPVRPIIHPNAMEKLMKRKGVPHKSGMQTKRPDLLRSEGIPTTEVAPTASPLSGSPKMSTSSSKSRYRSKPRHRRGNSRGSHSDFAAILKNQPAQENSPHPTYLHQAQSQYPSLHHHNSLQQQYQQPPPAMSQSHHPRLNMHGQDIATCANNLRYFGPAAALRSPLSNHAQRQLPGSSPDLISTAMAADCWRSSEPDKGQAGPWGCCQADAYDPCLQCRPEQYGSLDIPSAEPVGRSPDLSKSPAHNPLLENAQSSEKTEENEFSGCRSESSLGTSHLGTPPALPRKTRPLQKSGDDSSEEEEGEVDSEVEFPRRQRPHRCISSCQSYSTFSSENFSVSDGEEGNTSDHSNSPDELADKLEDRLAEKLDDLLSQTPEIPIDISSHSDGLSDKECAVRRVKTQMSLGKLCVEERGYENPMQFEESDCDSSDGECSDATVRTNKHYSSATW
# Chain of Proto-oncogene tyrosine-protein kinase receptor Ret (Homo sapiens), P07949 [V804M] (P07949 whole entry V804M): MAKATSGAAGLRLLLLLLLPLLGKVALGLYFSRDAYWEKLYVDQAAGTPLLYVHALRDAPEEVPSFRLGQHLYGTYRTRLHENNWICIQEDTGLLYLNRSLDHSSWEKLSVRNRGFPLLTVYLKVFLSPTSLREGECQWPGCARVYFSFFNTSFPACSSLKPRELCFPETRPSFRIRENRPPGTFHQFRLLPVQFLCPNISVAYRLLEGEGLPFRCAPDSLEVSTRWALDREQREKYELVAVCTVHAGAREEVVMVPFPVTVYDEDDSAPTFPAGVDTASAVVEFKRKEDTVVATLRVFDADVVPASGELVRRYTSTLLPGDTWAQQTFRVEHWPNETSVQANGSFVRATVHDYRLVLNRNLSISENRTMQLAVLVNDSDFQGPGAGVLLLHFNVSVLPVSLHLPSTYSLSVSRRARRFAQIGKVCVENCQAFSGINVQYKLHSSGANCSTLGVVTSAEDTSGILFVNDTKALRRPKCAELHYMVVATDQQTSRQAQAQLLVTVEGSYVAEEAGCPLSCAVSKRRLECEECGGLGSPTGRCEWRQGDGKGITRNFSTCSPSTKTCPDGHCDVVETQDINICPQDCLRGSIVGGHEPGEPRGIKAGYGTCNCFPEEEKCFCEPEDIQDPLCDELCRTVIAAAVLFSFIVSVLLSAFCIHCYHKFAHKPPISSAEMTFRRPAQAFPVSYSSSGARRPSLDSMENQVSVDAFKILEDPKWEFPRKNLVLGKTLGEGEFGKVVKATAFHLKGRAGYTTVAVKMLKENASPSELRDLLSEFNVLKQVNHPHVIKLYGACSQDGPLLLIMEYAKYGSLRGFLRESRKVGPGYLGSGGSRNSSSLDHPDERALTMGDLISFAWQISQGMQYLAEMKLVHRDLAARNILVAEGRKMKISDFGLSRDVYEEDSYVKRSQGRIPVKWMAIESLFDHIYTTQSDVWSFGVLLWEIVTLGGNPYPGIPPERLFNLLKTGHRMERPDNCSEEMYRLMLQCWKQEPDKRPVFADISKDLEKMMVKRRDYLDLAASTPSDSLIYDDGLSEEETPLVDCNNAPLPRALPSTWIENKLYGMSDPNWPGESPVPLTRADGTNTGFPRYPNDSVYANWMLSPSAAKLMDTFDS
# Chain of High affinity nerve growth factor receptor (Homo sapiens) (P04629 33-796 limits assumed): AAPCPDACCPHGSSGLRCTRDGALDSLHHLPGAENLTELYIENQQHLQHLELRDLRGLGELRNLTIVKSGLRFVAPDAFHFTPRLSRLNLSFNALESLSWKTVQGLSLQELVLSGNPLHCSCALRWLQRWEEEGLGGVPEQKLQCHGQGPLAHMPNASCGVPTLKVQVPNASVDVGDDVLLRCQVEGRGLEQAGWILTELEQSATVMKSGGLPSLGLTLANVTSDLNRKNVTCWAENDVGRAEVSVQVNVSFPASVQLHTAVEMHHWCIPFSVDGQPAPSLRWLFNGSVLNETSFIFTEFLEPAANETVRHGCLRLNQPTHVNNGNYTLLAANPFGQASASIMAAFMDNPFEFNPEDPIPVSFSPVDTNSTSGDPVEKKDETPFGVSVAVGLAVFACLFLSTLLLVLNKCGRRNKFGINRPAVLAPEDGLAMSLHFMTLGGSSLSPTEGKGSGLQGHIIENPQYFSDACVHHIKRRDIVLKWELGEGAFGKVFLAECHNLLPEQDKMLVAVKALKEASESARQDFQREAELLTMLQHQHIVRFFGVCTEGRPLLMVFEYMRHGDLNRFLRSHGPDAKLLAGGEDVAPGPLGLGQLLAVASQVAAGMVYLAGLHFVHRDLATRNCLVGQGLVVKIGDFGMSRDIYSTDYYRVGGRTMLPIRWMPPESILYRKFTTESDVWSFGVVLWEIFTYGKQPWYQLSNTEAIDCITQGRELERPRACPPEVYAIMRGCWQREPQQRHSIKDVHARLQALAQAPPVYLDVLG
# Chain of Serine/threonine-protein kinase 25 (Homo sapiens) (O00506 whole entry, looked up): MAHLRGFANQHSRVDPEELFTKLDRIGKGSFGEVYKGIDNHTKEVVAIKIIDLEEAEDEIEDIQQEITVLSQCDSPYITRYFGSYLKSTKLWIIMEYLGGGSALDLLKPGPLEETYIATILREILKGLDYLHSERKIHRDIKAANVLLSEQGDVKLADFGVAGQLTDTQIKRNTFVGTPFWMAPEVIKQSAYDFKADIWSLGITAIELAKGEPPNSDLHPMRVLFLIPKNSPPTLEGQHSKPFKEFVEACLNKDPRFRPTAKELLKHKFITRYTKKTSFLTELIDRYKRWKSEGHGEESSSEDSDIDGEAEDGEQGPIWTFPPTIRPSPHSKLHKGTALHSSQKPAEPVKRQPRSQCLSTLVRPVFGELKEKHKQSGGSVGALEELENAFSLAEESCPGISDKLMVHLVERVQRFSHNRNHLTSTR
SMILES,residual activity [1] [%],residual activity [2] [%],IC50 [3],residual activity [4] [%],residual activity [5] [%],residual activity [6] [%],inhibition [7] [%],residual activity [8] [%],residual activity [9] [%],residual activity [10] [%],residual activity [11] [%],residual activity [12] [%],residual activity [13] [%],residual activity [14] [%],residual activity [15] [%],residual activity [16] [%],residual activity [17] [%],residual activity [18] [%],residual activity [19] [%]
CCc1ccccc1C(=O)Nc1n[nH]c2c(C)c(F)c(C3C(C#N)=C(C)N(C)C(C)=C3C#N)cc12 [BAY-3827],100,90,0.015 µM (active),100,97,54,22.5,100,100,99,100,11,80,55,82,80,100,100,100
CC1=C(C#N)C(c2ccc3c(c2)c(NC(=O)c2ccccc2C)nn3C)C(C#N)=C(C)N1 [BAY-974],94,100,> 20 µM (not active),94,77,70,9.49,100,99,100,83,91,100,100,94,100,100,72,97
